Laboratory results reported in ChEMBL document CHEMBL1144455, “A small molecule-kinase interaction map for clinical kinase inhibitors” (Nat Biotechnol, 2005).

Legend:
[1] = molecular target: Tyrosine-protein kinase JAK2 (Homo sapiens, UniProt O60674)
[2] = molecular target: Serine/threonine-protein kinase PAK 5 (Homo sapiens, UniProt Q9P286)
[3] = molecular target: Calcium/calmodulin-dependent protein kinase type 1 (Homo sapiens, UniProt Q14012)
[4] = molecular target: Platelet-derived growth factor receptor beta (Homo sapiens, UniProt P09619)
[5] = molecular target: Calcium/calmodulin-dependent protein kinase type II subunit gamma (Homo sapiens, UniProt Q13555)
Sequence of Calcium/calmodulin-dependent protein kinase type II subunit gamma (Q13555 whole entry): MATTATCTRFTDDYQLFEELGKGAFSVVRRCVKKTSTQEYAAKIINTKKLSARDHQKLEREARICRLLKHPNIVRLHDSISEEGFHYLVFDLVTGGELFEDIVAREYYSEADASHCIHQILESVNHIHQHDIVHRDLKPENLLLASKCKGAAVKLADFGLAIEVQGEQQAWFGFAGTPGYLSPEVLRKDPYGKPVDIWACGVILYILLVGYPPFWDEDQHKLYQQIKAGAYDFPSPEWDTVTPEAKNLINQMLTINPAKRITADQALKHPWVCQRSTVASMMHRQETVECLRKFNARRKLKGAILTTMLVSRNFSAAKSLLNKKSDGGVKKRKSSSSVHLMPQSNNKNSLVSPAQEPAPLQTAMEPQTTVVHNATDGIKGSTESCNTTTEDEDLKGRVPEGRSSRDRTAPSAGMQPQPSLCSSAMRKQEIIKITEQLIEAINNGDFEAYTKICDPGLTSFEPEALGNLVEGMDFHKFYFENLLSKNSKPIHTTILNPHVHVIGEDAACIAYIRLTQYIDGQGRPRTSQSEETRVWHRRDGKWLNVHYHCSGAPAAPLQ

[6] = molecular target: Death-associated protein kinase 2 (Homo sapiens, UniProt Q9UIK4)
Sequence of Death-associated protein kinase 2 (Q9UIK4 whole entry): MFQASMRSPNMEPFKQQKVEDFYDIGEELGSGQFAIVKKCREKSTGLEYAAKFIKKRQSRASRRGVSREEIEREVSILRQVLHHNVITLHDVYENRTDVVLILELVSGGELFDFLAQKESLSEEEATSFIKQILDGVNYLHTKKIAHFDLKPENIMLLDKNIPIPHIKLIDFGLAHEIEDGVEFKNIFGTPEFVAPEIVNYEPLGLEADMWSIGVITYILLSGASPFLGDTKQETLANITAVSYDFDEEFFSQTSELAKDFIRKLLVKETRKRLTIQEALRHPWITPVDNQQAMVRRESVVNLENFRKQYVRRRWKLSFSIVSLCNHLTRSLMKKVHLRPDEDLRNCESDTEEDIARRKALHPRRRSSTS

[7] = molecular target: Myosin light chain kinase 2, skeletal/cardiac muscle (Homo sapiens, UniProt Q9H1R3)
Sequence of Myosin light chain kinase 2, skeletal/cardiac muscle (Q9H1R3 whole entry): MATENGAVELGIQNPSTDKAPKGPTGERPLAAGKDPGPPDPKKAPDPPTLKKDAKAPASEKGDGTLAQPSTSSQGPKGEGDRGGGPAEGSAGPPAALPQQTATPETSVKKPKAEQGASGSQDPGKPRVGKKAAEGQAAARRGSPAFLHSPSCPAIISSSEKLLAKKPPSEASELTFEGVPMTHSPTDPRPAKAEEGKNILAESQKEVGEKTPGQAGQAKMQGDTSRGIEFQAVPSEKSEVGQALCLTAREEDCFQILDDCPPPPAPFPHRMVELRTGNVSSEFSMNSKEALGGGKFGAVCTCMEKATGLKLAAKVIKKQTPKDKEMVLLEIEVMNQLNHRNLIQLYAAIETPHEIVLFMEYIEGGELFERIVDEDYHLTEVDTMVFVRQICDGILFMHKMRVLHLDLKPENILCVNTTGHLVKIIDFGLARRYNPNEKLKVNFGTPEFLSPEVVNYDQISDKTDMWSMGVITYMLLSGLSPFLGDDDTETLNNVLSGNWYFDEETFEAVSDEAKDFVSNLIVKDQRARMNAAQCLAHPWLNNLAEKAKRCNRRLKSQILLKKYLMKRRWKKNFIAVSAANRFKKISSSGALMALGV

Angiopoietin-1 receptor = Angiopoietin-1 receptor (Homo sapiens, UniProt Q02763)
[8] = molecular target: T1, Dual specificity protein kinase TTK (Homo sapiens, UniProt P33981)
T1 sequence (P33981 whole entry): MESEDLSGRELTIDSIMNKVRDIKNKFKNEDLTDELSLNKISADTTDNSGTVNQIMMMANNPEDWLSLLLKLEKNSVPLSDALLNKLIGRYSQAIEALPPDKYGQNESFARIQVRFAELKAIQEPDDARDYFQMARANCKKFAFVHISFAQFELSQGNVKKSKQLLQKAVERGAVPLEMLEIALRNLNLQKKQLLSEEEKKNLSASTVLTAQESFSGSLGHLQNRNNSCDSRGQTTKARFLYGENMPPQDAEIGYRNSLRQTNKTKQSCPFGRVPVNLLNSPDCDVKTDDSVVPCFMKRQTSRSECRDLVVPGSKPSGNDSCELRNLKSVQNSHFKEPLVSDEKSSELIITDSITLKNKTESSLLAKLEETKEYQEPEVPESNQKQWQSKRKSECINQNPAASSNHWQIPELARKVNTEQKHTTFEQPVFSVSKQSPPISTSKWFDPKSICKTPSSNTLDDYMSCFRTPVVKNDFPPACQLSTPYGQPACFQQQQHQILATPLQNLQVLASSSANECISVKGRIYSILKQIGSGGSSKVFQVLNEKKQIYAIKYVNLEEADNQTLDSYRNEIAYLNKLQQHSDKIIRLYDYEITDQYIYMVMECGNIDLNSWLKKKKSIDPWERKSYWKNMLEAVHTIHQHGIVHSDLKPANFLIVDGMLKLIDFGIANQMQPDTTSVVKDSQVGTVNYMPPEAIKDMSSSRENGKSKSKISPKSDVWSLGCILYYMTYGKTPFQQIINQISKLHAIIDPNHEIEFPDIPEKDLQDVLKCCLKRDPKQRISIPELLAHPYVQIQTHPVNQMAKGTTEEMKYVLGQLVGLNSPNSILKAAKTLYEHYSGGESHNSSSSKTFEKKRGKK

[9] = molecular target: Calcium/calmodulin-dependent protein kinase kinase 1 (Homo sapiens, UniProt Q8N5S9)
Sequence of Calcium/calmodulin-dependent protein kinase kinase 1 (Q8N5S9 whole entry): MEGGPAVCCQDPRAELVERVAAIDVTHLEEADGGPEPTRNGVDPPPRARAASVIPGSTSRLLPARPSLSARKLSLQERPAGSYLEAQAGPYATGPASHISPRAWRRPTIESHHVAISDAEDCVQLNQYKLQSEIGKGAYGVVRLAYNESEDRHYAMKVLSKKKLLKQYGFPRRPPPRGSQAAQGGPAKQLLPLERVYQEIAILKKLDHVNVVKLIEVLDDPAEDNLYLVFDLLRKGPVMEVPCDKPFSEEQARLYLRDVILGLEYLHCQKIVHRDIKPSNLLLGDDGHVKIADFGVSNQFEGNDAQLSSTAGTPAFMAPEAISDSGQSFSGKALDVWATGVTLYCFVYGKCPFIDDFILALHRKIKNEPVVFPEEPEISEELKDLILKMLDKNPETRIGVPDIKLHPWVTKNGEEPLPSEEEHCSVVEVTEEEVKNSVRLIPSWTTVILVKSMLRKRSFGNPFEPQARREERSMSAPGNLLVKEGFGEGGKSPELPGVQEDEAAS

[10] = molecular target: Tyrosine-protein kinase Lyn (Homo sapiens, UniProt P07948)
Sequence of Tyrosine-protein kinase Lyn (P07948 whole entry): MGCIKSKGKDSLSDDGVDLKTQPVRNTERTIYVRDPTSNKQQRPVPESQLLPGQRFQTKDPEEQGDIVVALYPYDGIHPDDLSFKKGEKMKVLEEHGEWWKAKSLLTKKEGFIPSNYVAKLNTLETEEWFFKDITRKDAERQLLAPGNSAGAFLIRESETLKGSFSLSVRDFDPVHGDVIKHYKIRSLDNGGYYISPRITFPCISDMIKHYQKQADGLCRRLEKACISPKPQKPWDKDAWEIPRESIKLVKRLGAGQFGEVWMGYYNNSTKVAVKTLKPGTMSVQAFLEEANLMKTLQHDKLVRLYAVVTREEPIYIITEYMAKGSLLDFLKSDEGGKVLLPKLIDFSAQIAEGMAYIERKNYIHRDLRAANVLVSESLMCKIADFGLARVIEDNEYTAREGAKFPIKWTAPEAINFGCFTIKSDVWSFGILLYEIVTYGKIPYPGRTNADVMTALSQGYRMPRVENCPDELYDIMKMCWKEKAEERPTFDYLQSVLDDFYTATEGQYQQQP

[11] = molecular target: High affinity nerve growth factor receptor (Homo sapiens, UniProt P04629)
Ephrin type-B receptor 1 = molecular target: T2, Ephrin type-B receptor 1 (Homo sapiens, UniProt P54762)
T2 sequence (P54762 whole entry): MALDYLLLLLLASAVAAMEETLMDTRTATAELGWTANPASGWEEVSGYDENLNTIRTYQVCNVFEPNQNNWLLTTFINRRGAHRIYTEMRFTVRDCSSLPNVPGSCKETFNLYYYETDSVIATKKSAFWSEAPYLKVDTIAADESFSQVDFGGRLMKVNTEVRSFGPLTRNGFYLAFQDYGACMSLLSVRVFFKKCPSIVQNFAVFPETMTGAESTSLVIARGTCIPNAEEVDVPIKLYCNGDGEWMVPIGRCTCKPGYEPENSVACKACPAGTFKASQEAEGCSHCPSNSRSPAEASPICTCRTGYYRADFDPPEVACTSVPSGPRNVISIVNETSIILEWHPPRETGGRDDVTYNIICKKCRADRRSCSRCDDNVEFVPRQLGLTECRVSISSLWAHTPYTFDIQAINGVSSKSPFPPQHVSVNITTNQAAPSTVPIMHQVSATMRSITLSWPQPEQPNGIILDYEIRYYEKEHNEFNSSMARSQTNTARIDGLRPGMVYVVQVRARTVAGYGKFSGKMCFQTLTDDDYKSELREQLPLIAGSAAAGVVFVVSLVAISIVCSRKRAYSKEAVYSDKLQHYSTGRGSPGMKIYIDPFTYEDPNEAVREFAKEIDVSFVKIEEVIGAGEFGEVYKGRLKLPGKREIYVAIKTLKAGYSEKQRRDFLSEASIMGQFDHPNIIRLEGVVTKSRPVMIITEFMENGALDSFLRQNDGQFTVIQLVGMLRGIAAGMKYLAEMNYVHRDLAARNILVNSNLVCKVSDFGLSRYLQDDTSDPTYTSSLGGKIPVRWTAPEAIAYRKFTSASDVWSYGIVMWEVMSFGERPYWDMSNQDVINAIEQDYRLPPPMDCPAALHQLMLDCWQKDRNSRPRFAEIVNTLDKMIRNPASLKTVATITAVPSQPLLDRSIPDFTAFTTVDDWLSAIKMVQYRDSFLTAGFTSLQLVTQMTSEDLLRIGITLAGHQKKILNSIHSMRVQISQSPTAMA

[12] = molecular target: Fibroblast growth factor receptor 3 (Homo sapiens, UniProt P22607)
Sequence of Fibroblast growth factor receptor 3 (P22607 whole entry): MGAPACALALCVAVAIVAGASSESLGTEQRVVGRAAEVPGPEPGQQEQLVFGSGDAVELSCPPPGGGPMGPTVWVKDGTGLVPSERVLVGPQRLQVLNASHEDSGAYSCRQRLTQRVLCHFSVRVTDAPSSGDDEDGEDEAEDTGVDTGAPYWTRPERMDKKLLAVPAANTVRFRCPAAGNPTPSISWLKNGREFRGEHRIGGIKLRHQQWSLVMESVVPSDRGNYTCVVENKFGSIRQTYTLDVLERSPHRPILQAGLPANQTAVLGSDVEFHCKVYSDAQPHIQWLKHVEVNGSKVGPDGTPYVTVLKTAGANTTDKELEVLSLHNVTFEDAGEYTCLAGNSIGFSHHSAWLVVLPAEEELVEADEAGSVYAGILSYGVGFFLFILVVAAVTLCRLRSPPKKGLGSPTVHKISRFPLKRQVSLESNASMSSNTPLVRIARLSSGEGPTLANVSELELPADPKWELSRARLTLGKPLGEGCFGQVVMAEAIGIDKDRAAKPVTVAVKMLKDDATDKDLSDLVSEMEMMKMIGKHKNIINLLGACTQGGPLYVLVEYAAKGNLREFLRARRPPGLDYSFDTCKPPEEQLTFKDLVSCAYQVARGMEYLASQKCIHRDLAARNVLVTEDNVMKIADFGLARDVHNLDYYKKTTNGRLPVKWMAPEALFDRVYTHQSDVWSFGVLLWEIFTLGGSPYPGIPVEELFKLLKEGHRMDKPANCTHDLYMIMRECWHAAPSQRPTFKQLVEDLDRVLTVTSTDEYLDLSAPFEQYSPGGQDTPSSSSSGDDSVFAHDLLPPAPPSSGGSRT

[13] = molecular target: Receptor-interacting serine/threonine-protein kinase 2 (Homo sapiens, UniProt O43353)
Sequence of Receptor-interacting serine/threonine-protein kinase 2 (O43353 whole entry): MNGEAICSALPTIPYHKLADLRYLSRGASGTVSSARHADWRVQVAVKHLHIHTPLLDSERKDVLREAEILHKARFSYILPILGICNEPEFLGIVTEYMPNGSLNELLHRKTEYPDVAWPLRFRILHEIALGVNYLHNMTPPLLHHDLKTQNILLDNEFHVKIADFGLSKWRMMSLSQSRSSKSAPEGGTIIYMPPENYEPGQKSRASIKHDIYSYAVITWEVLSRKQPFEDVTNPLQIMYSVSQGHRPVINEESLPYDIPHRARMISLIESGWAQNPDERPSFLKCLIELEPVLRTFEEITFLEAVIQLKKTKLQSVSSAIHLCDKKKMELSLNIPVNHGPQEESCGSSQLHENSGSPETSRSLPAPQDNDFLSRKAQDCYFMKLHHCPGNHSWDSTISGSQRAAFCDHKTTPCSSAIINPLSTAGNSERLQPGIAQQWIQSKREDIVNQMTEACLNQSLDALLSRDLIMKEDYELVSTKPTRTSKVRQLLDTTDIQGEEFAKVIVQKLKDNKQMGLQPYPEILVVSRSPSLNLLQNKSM

Aurora kinase A = molecular target: T3, Aurora kinase A (Homo sapiens, UniProt O14965)
T3 sequence (O14965 whole entry): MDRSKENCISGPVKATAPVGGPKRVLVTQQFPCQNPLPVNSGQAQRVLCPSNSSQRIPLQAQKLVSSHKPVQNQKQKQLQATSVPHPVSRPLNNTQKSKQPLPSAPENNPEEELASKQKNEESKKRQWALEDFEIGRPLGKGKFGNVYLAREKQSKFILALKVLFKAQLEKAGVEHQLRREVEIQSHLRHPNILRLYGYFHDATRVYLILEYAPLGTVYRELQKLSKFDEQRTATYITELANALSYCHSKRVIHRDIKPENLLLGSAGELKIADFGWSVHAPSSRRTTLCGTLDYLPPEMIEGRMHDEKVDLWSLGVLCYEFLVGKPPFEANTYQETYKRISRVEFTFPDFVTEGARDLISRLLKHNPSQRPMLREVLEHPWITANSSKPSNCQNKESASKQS

Measured: Kd

Sequence of Tyrosine-protein kinase JAK2 (O60674 whole entry): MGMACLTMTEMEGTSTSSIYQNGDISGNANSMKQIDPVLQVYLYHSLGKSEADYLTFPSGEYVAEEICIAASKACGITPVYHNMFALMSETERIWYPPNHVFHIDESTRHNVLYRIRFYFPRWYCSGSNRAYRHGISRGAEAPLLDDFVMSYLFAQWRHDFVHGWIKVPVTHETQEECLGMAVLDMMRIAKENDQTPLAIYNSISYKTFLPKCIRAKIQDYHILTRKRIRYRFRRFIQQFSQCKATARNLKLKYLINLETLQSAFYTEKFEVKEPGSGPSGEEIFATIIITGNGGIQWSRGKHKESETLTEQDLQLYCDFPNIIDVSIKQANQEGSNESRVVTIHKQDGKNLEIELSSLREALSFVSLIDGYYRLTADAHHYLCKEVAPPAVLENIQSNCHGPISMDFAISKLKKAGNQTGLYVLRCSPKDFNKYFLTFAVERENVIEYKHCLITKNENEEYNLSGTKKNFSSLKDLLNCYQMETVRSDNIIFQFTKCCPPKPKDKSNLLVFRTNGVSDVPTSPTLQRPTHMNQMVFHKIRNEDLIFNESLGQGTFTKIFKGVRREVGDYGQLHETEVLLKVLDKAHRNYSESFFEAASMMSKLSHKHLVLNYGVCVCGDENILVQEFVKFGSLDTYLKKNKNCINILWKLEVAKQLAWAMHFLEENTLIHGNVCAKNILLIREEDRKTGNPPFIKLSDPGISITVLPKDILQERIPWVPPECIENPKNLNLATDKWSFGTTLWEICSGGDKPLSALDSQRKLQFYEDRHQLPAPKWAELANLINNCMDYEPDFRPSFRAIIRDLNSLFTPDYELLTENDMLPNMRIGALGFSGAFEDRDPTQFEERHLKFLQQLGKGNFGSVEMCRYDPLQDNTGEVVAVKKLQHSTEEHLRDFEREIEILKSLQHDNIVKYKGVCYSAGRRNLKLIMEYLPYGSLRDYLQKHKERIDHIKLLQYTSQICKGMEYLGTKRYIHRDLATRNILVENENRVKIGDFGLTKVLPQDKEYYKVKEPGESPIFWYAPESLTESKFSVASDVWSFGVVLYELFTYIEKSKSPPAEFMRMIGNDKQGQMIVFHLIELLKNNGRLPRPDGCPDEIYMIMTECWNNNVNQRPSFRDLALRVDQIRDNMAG

C#Cc1cccc(Nc2ncnc3cc(OCCOC)c(OCCOC)cc23)c1 [ERLOTINIB]
Not Active: [1] | [2] | [3] | [4] | [5] | [6] | [7] | Angiopoietin-1 receptor | [8] | [9] | [10] | [11] | Ephrin type-B receptor 1 | [12]

Cc1ccc(NC(=O)c2ccc(CN3CCN(C)CC3)cc2)cc1Nc1nccc(-c2cccnc2)n1 [IMATINIB]
Not Active: [1] | [2] | [3] | [13] | [5] | [6] | [7] | Angiopoietin-1 receptor | [8] | [9] | Aurora kinase A | [10] | [11] | Ephrin type-B receptor 1 | [12]

O=c1ncn2nc(Sc3ccc(F)cc3F)ccc2c1-c1c(Cl)cccc1Cl [NEFLAMAPIMOD]
Not Active: [1] | [2] | [3] | [13] | [5] | [6] | [7] | Angiopoietin-1 receptor | [8] | [9] | Aurora kinase A | [10] | [11] | [12]

CCOc1cc2ncc(C#N)c(Nc3ccc(F)c(Cl)c3)c2cc1NC(=O)/C=C/CN(C)C [PELITINIB]
Not Active: [2] | [3] | [4] | [13] | [5] | [6] | [8] | [9] | Aurora kinase A | [11] | [12]

Oc1ccc(-c2nc(-c3ccc(F)cc3)c(-c3ccncc3)[nH]2)cc1 [SB-202190]
Not Active: [1] | [2] | [3] | [4] | [5] | [6] | [7] | Angiopoietin-1 receptor | [8] | [9] | Aurora kinase A | [10] | [11] | Ephrin type-B receptor 1 | [12]

C[S+]([O-])c1ccc(-c2nc(-c3ccc(F)cc3)c(-c3ccncc3)[nH]2)cc1 (stereo not given) [SB-203580]
Not Active: [1] | [2] | [3] | [4] | [5] | [6] | [7] | Angiopoietin-1 receptor | [8] | [9] | Aurora kinase A | [10] | [11] | Ephrin type-B receptor 1 | [12]

CC[C@H](CO)Nc1nc(NCc2ccccc2)c2ncn(C(C)C)c2n1 [SELICICLIB]
Not Active: [1] | [2] | [3] | [4] | [13] | [5] | [6] | [7] | Angiopoietin-1 receptor | [9] | Aurora kinase A | [10] | [11] | Ephrin type-B receptor 1 | [12]

Oc1c2ccccc2c2c3c(cccc13)N=N2 [SP-600125]
Not Active: [1] | [2] | [4] | [13] | [5] | [7] | Angiopoietin-1 receptor | [9] | [10] | [11] | Ephrin type-B receptor 1 | [12]

COc1cc2c(N3CCN(C(=O)Nc4ccc(OC(C)C)cc4)CC3)ncnc2cc1OCCCN1CCCCC1 [TANDUTINIB]
Not Active: [1] | [2] | [3] | [13] | [5] | [6] | [7] | Angiopoietin-1 receptor | [8] | [9] | Aurora kinase A | [10] | Ephrin type-B receptor 1 | [12]
